Experimental data reported in patent publication US9925193B2, “Thioether derivatives as protein kinase inhibitors” (KTB TUMORFORSCHUNGSGESELLSCHAFT MBH, priority 2012, dated 2018).

Experiments:
ALK = biological target: T1, ALK (Homo sapiens, UniProt Q9UM73); test: 33PanQinase Activity Assay, ALK; format: biochemical; settings: recombinant human protein kinase, 1 μM [γ-33P]-ATP, 30° C. 80 minutes
T1 construct: made in house; host or cells: Sf9 insect cells (baculovirus)
Protocol: (§1) The effect of the thioether derivatives 8a-v and 9a-i was tested on recombinant, human protein kinases. All protein kinases were expressed in Sf9 insect cells as human recombinant GST-fusion proteins or as His-tagged proteins by means of the baculovirus expression system. Protein kinases were purified by affinity chromatography using either GSH-agarose or Ni-NTH-agarose. The purity and identity of each was checked by SDS-PAGE/silver staining and by western blot analysis with specific antibodies.
(§2) A proprietary protein kinase assay (^33PanQinase® Activity Assay) was used for measuring the kinase activity. All kinase assays were performed in 96-well FlashPlates™ in a 50 μl reaction volume. The assay for all enzymes contained 60 mM HEPES-NaOH, pH 7.5, 3 mM MgCl2, 3 mM MnCl2, 3 μM Na-orthovanadate, 1.2 mM DTT, 50 μg/ml PEG20000 and 1 μM [γ-^33P]-ATP (approx. 5×10^5 cpm per well).
(§3) The reaction cocktails were incubated at 30° C. for 80 minutes. The reaction was stopped with 50 μl of 2% (v/v) H3PO4, plates were aspirated and washed two times with 200 μl of 0.9% (w/v) NaCl. Incorporation of ^33Pi was determined with a microplate scintillation counter. All assays were performed with a BeckmanCoulter/Sagian robotic system.

PRK1 = biological target: T2, PRK1 (Homo sapiens, UniProt Q16512); test: 33PanQinase Activity Assay, PRK1; format: biochemical; settings: recombinant human protein kinase, 1 μM [γ-33P]-ATP, 30° C. 80 minutes
T2 construct: made in house; host or cells: Sf9 insect cells (baculovirus)
Protocol: as §1, §2, §3

VEGF-R2 = biological target: T3, VEGF-R2 (Homo sapiens, UniProt P35968); test: 33PanQinase Activity Assay, VEGF-R2; format: biochemical; settings: recombinant human protein kinase, 1 μM [γ-33P]-ATP, 30° C. 80 minutes
T3 construct: made in house; host or cells: Sf9 insect cells (baculovirus)
Protocol: as §1, §2, §3

SRC = biological target: T4, SRC (Homo sapiens, UniProt P12931); test: 33PanQinase Activity Assay, SRC; format: biochemical; settings: recombinant human protein kinase, 1 μM [γ-33P]-ATP, 30° C. 80 minutes
T4 construct: made in house; host or cells: Sf9 insect cells (baculovirus)
Protocol: as §1, §2, §3

PIM1 = biological target: T5, PIM1 (Homo sapiens, UniProt P11309); test: 33PanQinase Activity Assay, PIM1; format: biochemical; settings: recombinant human protein kinase, 1 μM [γ-33P]-ATP, 30° C. 80 minutes
T5 construct: made in house; host or cells: Sf9 insect cells (baculovirus)
Protocol: as §1, §2, §3

IGF1-R = biological target: T6, IGF1-R (Homo sapiens, UniProt P08069); test: 33PanQinase Activity Assay, IGF1-R; format: biochemical; settings: recombinant human protein kinase, 1 μM [γ-33P]-ATP, 30° C. 80 minutes
T6 construct: made in house; host or cells: Sf9 insect cells (baculovirus)
Protocol: as §1, §2, §3

AXL = biological target: T7, AXL (Homo sapiens, UniProt P30530); test: 33PanQinase Activity Assay, AXL; format: biochemical; settings: recombinant human protein kinase, 1 μM [γ-33P]-ATP, 30° C. 80 minutes
T7 construct: made in house; host or cells: Sf9 insect cells (baculovirus)
T7 sequence (P30530 26-894): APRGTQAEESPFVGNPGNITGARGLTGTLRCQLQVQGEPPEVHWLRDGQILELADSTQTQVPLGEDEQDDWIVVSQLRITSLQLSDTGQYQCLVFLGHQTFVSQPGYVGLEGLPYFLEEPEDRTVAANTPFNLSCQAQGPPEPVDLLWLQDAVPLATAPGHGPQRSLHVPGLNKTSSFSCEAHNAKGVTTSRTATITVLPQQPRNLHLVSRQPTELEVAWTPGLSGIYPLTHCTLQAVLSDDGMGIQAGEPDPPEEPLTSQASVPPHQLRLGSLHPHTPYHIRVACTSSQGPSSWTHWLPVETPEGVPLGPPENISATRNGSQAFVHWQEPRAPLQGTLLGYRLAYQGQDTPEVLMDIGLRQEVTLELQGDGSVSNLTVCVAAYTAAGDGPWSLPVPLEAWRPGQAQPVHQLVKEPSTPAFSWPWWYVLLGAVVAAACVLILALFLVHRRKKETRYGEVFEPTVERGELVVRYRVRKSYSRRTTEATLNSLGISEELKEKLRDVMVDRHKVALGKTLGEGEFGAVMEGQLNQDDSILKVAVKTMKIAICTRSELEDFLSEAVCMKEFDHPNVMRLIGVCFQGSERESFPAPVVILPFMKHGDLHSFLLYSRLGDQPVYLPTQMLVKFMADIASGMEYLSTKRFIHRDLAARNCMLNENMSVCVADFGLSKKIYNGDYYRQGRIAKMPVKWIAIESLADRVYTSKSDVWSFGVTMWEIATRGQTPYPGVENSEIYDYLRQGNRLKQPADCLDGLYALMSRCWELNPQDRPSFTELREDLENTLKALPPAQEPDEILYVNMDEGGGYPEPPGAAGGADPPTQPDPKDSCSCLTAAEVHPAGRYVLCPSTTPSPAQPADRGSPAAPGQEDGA
Protocol: as §1, §2, §3

FAK = biological target: T8, FAK (Homo sapiens, UniProt Q05397); test: 33PanQinase Activity Assay, FAK; format: biochemical; settings: recombinant human protein kinase, 1 μM [γ-33P]-ATP, 30° C. 80 minutes
T8 construct: made in house; host or cells: Sf9 insect cells (baculovirus)
Protocol: as §1, §2, §3

[1] = biological target: T9, ALK, AXL, FAK, KIT wt, IGF1-R, PIM1, PRK1, SRC and VEGF-R2; test: 33PanQinase Activity Assay, kinase panel summary; format: biochemical, human; settings: at least two kinases of the panel; read-out: IC50 values on at least two kinases from at least two different molecular mechanisms of tumor progression
T9 construct: other: at le; fused on or other part: GST or His tag
Protocol: as §1, §2, §3
Thioether derivatives 8a-v and 9a-i show excellent IC50 values.

T4 sequence (P12931 whole entry): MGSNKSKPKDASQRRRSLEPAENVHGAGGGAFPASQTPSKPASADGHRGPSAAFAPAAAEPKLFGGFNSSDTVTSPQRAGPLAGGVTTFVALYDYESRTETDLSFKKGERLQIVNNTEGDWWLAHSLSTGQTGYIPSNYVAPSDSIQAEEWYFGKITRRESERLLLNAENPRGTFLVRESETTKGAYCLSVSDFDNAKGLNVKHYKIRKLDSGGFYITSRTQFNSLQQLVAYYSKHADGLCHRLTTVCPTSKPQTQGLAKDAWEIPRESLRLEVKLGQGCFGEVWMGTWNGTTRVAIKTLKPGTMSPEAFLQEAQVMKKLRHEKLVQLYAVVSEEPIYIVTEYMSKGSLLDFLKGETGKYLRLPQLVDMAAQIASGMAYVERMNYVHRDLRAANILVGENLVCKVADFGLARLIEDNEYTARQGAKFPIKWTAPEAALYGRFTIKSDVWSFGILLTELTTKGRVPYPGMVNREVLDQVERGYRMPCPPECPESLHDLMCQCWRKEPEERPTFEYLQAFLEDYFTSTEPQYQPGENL
T3 sequence (P35968 20-1356): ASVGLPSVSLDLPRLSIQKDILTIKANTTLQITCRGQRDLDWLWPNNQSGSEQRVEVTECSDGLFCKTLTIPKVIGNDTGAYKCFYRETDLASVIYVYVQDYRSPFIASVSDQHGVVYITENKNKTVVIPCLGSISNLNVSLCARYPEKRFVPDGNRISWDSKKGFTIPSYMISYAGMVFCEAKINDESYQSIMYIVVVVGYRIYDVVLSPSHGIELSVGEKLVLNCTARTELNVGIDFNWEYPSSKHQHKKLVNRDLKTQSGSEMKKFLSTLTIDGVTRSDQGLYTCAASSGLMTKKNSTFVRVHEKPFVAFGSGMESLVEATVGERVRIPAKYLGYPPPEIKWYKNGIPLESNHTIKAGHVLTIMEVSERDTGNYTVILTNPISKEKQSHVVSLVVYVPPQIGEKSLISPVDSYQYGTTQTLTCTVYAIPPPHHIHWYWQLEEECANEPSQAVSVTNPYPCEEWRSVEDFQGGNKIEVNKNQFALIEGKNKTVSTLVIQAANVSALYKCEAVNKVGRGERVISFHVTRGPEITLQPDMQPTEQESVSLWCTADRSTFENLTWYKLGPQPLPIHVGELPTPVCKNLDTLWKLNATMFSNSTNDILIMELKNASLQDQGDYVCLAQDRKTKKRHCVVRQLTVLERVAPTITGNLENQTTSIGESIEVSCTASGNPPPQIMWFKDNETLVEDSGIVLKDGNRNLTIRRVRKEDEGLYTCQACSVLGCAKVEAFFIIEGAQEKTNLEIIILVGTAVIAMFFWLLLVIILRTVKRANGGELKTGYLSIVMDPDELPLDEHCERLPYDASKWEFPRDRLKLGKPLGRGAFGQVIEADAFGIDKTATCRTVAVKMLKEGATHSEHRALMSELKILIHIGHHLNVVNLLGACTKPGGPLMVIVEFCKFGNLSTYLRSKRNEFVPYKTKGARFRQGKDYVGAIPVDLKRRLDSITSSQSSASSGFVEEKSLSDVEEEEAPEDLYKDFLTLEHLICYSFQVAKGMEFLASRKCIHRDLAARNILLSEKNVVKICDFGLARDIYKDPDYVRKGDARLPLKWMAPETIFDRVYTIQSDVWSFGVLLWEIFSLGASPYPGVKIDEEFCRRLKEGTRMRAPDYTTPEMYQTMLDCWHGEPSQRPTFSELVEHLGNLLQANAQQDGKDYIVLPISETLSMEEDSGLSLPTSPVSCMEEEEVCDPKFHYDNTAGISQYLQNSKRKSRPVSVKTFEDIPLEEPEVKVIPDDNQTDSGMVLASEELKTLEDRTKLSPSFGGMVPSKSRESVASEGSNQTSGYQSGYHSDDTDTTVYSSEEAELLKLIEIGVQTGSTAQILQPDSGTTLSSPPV
T6 sequence (P08069 31-1367): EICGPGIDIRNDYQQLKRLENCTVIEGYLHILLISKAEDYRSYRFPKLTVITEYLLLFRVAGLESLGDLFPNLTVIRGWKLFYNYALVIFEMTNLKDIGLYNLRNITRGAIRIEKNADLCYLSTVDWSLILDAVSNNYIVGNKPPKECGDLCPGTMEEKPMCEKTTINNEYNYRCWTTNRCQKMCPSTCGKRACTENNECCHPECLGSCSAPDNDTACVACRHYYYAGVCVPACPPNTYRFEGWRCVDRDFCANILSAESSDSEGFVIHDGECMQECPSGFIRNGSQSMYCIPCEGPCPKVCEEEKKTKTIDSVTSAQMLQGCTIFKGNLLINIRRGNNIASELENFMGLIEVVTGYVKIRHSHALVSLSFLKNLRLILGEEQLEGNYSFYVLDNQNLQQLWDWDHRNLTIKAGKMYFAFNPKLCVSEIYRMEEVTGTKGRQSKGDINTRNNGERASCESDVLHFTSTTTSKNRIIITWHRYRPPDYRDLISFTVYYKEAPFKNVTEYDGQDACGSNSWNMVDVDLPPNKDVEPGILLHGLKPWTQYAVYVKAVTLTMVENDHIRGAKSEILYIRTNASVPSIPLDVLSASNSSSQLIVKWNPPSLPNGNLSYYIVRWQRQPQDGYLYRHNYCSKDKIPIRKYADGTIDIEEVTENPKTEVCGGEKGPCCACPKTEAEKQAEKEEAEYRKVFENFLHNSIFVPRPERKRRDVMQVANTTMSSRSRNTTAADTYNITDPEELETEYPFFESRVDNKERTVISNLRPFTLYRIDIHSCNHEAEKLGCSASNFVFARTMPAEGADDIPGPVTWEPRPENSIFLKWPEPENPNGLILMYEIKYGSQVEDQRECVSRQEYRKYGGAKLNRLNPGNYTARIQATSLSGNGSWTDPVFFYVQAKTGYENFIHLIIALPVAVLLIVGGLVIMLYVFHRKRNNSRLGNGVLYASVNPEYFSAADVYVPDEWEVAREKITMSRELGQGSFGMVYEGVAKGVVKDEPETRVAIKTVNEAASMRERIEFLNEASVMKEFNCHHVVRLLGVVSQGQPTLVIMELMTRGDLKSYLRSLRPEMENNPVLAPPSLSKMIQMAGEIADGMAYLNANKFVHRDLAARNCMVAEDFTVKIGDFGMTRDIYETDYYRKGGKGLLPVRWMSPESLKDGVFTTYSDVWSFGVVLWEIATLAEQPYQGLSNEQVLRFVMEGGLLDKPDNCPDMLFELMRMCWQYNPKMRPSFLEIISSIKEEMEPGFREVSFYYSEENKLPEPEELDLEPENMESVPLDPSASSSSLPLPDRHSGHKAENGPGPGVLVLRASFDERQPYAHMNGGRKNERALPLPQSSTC
T2 sequence (Q16512 whole entry): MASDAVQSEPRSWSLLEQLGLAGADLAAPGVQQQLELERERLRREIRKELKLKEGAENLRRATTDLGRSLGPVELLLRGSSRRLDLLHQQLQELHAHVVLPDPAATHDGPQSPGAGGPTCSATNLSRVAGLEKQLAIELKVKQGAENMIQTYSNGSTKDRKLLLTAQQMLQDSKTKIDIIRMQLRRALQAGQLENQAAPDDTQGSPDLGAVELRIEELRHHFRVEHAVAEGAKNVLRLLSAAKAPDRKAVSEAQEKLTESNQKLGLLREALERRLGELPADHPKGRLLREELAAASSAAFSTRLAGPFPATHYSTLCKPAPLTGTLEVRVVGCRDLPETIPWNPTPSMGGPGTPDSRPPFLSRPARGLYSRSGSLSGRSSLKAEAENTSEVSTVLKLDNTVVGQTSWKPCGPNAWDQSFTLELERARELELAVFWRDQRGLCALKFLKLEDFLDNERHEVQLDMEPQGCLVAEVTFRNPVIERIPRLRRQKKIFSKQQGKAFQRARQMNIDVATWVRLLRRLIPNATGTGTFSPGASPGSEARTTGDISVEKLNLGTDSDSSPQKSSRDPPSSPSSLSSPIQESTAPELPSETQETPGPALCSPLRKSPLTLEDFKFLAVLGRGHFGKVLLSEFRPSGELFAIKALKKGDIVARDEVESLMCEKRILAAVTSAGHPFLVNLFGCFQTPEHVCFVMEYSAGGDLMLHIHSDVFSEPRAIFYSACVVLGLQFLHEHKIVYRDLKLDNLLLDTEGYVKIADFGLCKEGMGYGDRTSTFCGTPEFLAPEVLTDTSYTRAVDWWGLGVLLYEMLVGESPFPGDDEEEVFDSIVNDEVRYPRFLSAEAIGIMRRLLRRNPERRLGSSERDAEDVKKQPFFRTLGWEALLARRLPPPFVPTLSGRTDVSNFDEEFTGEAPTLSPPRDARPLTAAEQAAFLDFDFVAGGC
T5 sequence (P11309 whole entry): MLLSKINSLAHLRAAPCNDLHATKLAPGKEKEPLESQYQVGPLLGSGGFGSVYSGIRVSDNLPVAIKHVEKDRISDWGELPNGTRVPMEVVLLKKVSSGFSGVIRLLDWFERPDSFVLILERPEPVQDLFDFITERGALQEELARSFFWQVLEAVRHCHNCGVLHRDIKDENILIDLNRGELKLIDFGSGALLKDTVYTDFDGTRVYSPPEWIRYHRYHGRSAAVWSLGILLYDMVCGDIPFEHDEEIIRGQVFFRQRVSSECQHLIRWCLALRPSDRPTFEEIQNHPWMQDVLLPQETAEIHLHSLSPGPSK

| IC50 (ALK) [µM] | IC50 (PRK1) [µM] | IC50 (VEGF-R2) [µM] | IC50 (SRC) [µM] | IC50 (PIM1) [µM] | IC50 (IGF1-R) [µM] | IC50 (AXL) [µM] | IC50 (FAK) [µM] | melting point [°C] | IC50 [1] [µM] | SMILES |
| --- | --- | --- | --- | --- | --- | --- | --- | --- | --- | --- |
| 1.03 | 33.9 | 1.84 | 0.681 | 11.3 | 1.37 | 2.94 | 2.04 | 172 to 175 | – | Fc1ccc(-c2cc3ncnc(Sc4ccc(C(F)(F)F)cc4)c3s2)cc1 [Compound 8h, 6-(4-Fluorophenyl)-4-{[4-(trifluoromethyl)phenyl]thio}thieno[3,2-d]pyrimidine] |
| 6.63 | 47.3 | 9.69 | 6.35 | – | 9.15 | 22.6 | 9.08 | 172 to 174 | – | Fc1ccc(-c2cc3ncnc(Sc4ccccn4)c3s2)cc1 [Compound 8j, 6-(4-Fluorophenyl)-4-(pyridin-2-ylthio)thieno[3,2-d]pyrimidine] |
| 23.7 | 86.1 | 20.8 | 11 | 11.1 | 23.1 | 41.5 | 22.1 | 204 to 206 | – | Fc1ccc(-c2cc3ncnc(Sc4ncc[nH]4)c3s2)cc1 [Compound 8i, 4-[(1H-imidazol-2-yl)thio]-6-(4-fluorophenyl)thieno[3,2-d]pyrimidine] |
| 0.86 | – | – | 0.7 | – | – | > 100 | 0.93 | 256 to 257 | < 10 | FC(F)(F)c1ccc(-c2nnc(Sc3ncnc4[nH]c(-c5ccccc5)nc34)o2)cc1 [Compound 8v, 2-[(8-Phenyl-9H-purin-6-yl)thio]-5-[4-(trifluoromethyl)phenyl]-1,3,4-oxadiazole] |
| 0.651 | 14.6 | 1.47 | 0.487 | 10.4 | 1.27 | 3.2 | 1.28 | 166 to 168 | – | COc1cccc(Cc2nnc(Sc3ncnc4cc(-c5ccc(F)cc5)sc34)o2)c1 [Compound 8f, 2-{[6-(4-Fluorophenyl)thieno[3,2-d]pyrimidin-4-yl]thio}-5-(3-methoxybenzyl)-1,3,4-oxadiazole] |
| 0.977 | 15.4 | 1.41 | 0.54 | 8.68 | 1.03 | 2.51 | 1.96 | 233 to 235 | – | Fc1ccc(-c2cc3ncnc(Sc4nnc(-c5ccc(C(F)(F)F)cc5)o4)c3s2)cc1 [Compound 8e, 2-{[6-(4-Fluorophenyl)thieno[3,2-d]pyrimidin-4-yl]thio}-5-[4-(trifluoromethyl)-phenyl]-1,3,4-oxadiazole] |
| 1.15 | 38 | 2.24 | 0.875 | 13.7 | 1.5 | 3.14 | 3.01 | – | – | Fc1ccc(-c2cc3ncnc(Sc4nnc(Cc5ccccc5)o4)c3s2)cc1 [Compound 8l, 2-Benzyl-5-{[6-(4-fluorophenyl)thieno[3,2-d]pyrimidin-4-yl]thio}-1,3,4-oxadiazole] |
